For one data set, the system named is S. aureus MW2-WT. The experiment in a line: microbe, parasite or virus in culture. The format is cell-based, Staphylococcus aureus. The following applies: E-test, 50 μM Inh2-B1, 6 antibiotics.
The test system of data set [1] is cell wall hydrolase genes in S. aureus MW2-WT. The data set is described as follows: qRT-PCR mRNA expression of cell wall hydrolase genes. The format is cell-based, Staphylococcus aureus. Conditions: treated MW2-WT vs untreated. On the procedure: The late log phase-grown S. aureus strains MW2 wild-type, and isogenic ΔSTK1 and ΔSTP1 mutant strains, as well as S. aureus MW2 strain treated with 25 μM Inh2-B1 for 4 h, were subjected to lysostaphin treatment to obtain whole cell lysate. Total RNA from the resulting lysate was first extracted by TRIZOL™ (Invitrogen/Thermo) and treated with RNase-free DNaseI. High-quality total RNA (RIN>7.0, and 260/280 and 260/230 ratios >1.8) was then extracted by using RNA purification kit (Norgen, Canada) per manufacturer's instructions and confirmed by an Agilent 2100 Bioanalyzer (Agilent Technologies, Palo Alto, Calif.). The first-strand cDNA from the total RNA was generated, and relative mRNA concentration was quantitated using SYBR Green qRT-PCR master mix and specific primers, using a Light Cycler® 480 real-time PCR machine (Table 2). The results obtained for all samples (three biological replicates each in triplicates) were normalized to corresponding values of 16S rRNA. All results including relative fold-changes in the mRNA expression (mutant vs. wild-type or treated vs. nontreated) for individual genes were analyzed using Exor4 software (Roche Applied Science). Changes in expression ratios by more than 2-fold (up- or down-regulation) were considered as significant.
(In qPCR the cycle at which signal appears reflects the starting amount.)

The subject of data set [2] is BEAS-2B cells. The data set is described as follows: LDH release cytotoxicity assay. The format is cell-based, human. Conditions: 1.56-100 μM, 24 h. On the procedure: (§1) Various concentrations (1.56-100 μM) of the small molecule compounds Inh2-B1 were tested for their cytotoxicity by incubating them for 24 h in the cell lines mentioned above. The cytotoxicity of compounds was determined by measuring the activity of lactate dehydrogenase (LDH) released from the damaged cells during incubation. The LDH assay was performed in triplicate wells. At the end of incubation, the plates were lightly centrifuged, and the culture supernatants were examined for the presence of LDH activity using Cytotoxicity Detection Kit (Promega) per the manufacturer's instructions. LDH activity was detected spectrophotometrically (Molecular device, 490 nm) and normalized to the total LDH activity (100%) in cell lysate of the untreated cells. Background value obtained with untreated culture supernatant was subtracted before data evaluation.
For orientation: LDH leaks from cells whose membrane has failed.

Data set [3] has as its system Detroit 562 cells. The experiment in a line: LDH release cytotoxicity assay. Conditions: 1.56-100 μM, 24 h. The format is cell-based, human. On the procedure:
as §1

Data set [4] concerns BEAS-2B cells. The data set is described as follows: MTT cell proliferation assay. The format is cell-based, human. Conditions: 24 h. On the procedure:
(§2) Impact of Inh2-B1 on cell proliferation was determined by MTT (3-[4,5-dimethylthiazol-2-yl]-2,5 diphenyl tetrazolium bromide)-based assay using Roche Colorimetric proliferation assay kit. Cell lines mentioned above were grown in 96-well tissue culture plates in the CO2 incubator at 37° C. The cells were treated with Inh2-B1 as described above in a final volume of 100 μl for 24 h. At the end of incubation, tissue culture medium from each well was removed and replaced with fresh 100 μl of the medium containing MTT solution (0.5 mg/ml) and further incubated for 4 h. The purple color of formazan salt crystals formed in each well was solubilized with the addition of 100 μl of 10% SDS solution in 0.01M HCl and further incubating for 10-12 h. The solubilized formazan product in each well was spectrophotometrically analyzed using a microtiter plate reader (Molecular Devices, 570 nm). Absorbance values of wells containing MTT reagents without cells and the untreated cultured cells with MTT reagents were considered as the background and negative controls. All tests were performed in triplicate wells. The average background value obtained from 10 wells was subtracted from the test values, and the corrected values obtained from untreated and treated cells were statistically analyzed by Student's test. P<0.05 was treated as a significant difference.
For orientation: Tetrazolium assays rely on reduction of a dye to a coloured formazan, in cell work by metabolically active cells.

Data set [5] deals with Detroit 562 cells. The experiment in a line: MTT cell proliferation assay. The format is cell-based, human. The following applies: even at 100 μM, 24 h. On the procedure:
as §2

Data set [6] can be described thus: Tolerability in mice treated with compound only. Conditions: 5 mg/kg i.p., ten-day observation. The format is in vivo, CD-1 mice. On the procedure: The virulence potential of the wild-type S. aureus MW2 wild-type and corresponding MW2ΔSTK1 and MW2ΔSTP1 mutants was assessed using the mouse-septicemia model. CD-1 mice (5 weeks old, 20-22 g. Charles River Laboratories, ten female mice/group and housed in a group of 5 mice/cage) were lightly anesthetized with isoflurane and injected retro-orbitally with the S. aureus MW2 or isogenic MW2Δstk1 mutant (4×10^8 CFU/0.1 ml of PBS). […] For therapeutic studies, the animals were first challenged with MW2-WT strain as described above and subsequently administered with antibiotic and/or small molecule compounds. The latter was started 4 h after the challenge and subsequently 12 h apart for 4 days post infection. Thus, Inh2-B1 (5 mg/kg body weight in 0.3 ml vehicle buffer), Ceftriaxone (10 and 25 mg/kg body weight in 0.3 ml vehicle buffer). […] Data were combined, and percentage survival in each group was statistically evaluated by the Log-Rank test (Kaplan-Meier) using the GraphPad Prism 6 software. […] On Day 3 P.I., 3-6 mice from different groups receiving treatment with a single antibiotic or combination therapy were euthanized and sacrificed, and kidneys were […] for determining the bacterial load, which was determined by counting the colony forming units in the homogenized tissue in sterile PBS buffer.

For data set [7], the system named is S. aureus MW2-WT, MW2ΔSTK1 and MW2ΔSTP1 colonies. The data set is described as follows: Colony hemolysis pattern on TSA blood agar plates. The format is cell-based, Staphylococcus aureus. The following applies: 50 μM Inh2-B1, MW2-WT, MW2ΔSTK1 or MW2ΔSTP1. An excerpt:
See the increased hemolysis around the colonies of the MW2ΔSTK1 mutant and absence of hemolysis around those of MW2ΔSTP1 mutant as depicted in the enlarged portion of certain representative colonies shown under each panel of the strain. A one centimeter bar is included to facilitate the determination of the relative size of colonies and corresponding hemolytic zones around them.

The nature of data set [8]: Stability in serum and body fluid. The format is in vitro ADME.

For the compound `COC(=O)c1ccc2c(=O)[nH]c3c(C(=O)Nc4ccccc4)sc(=S)n3c2c1` [Inh2-B1, Methyl 5-oxo-3-(phenylcarbamoyl)-1-thioxo-4,5dihydro[1,3]thiazolo[3,4-a]quinazoline-8-carboxylate], the “effect on susceptibility patterns of antibiotics other than cell wall acting ones” value in the data set on S. aureus MW2-WT is reported as “did not change susceptibility patterns”. Also, in data set [1], the “expression of cell wall hydrolase-encoding genes” value is reported as “down-regulation of cell wall hydrolase-encoding genes”. Besides, the “cytotoxicity (LDH release)” value in the data set on BEAS-2B cells [2] is recorded as around 15%. Besides, the “lysis (LDH release)” value in the data set with Detroit 562 cells [3] was “less than 5%”. Moreover, the “cell proliferation inhibition (MTT)” value in the data set on BEAS-2B cells [4] (50 μM) was around 20%; in the data set on BEAS-2B cells [4] (100 μM), around 40%. For the same compound, the “effect on cell proliferation (MTT)” value in the data set on Detroit 562 cells [5] is reported as “did not affect cell proliferation”. Moreover, the “signs of illness in mice treated with only the compound” value in data set [6] is reported as “no morbid signs of illness”. Further, the “survival of mice treated with only the compound” value in data set [6] is recorded as “survived all throughout the observation period”. Further, in data set [7], the “hemolysis pattern of colonies” value is on record as “did not show any changes in the hemolysis pattern”. The “stability in the serum and body fluid, such as peritoneal fluid” value in [8] is given as “remain stable”.

These data come from patent publication US11318141B2, “Methods and compositions related to STK1-targeted small molecules as antibiotic resistance breakers” (Ohio State Innovation Foundation, priority 2017, dated 2022).
